Laboratory results: patent US20250213519A1, “SYNERGY FOR INCREASING INSULIN SENSITIVITY” (Board of Supervisors of Louisiana State University and …, priority 2022, published 2025)
Entries after “also recorded” stand apart in the source; their conditions may differ.

Experiments:
human adipocytes [1] = experiment: mRNA levels (qRT-PCR) in human adipocyte cultures treated for seven days; assay type: cell-based; conditions: for effects on gene expression of myricetin added to NRBC: added to nar ext + β-carotene, nanomolar myricetin
Source text: In adipocytes, CDK5 inhibitors reduce adipogenesis and increase genes for energy expenditure by altering PPARγ target gene selection. We measured the expression of the PPARα/γ direct target gene UCP1 after treating human adipocyte cultures with CDK5-inhibiting flavonols combined with naringenin for seven days.
Human adipose-derived stem cells from overweight and obese female donors were purchased from LaCell, LLC (New Orleans, Louisiana) or isolated from lipoaspirate waste donated post-surgery from women with obesity using methods as previously described (31). Cells were seeded, maintained until two days after becoming confluent, and differentiated into adipocytes in the presence of rosiglitazone and isobutylmethylxanthine for five days as previously described (25). […], dissolved in DMSO at 1000×, started 5 days after the differentiation period and lasted for seven days in adipocyte maintenance medium with heat inactivated serum, before RNA and protein were isolated from adipocyte cultures.
Quantitative reverse transcriptase and real-time PCR were conducted in one reaction with the gene-specific reverse PCR primer also priming the cDNA synthesis as previously described (25). Primer-probe sequences for UCP1, GLUT4, ATGL, adiponectin, PGC-1α and ribosomal RPL13A, used to adjust target gene values for total RNA in each sample, have been previously reported (25). […] Predesigned human primer and probe sets from Thermofisher Scientific are PM20D1 Hs00399438_m1; ANGPTL4 Hs00211522_m1; GDF11 Hs00195156_m1; S100B Hs00902901_m1.

[2] = Pharmacokinetics of myricetin in rats; assay type: in vivo; conditions: plasma, po, from Table 1 (rat), converted
[3] = Myricetin toxicity in mice; assay type: in vivo; conditions: converted for human
human adipocytes [4] = experiment: mRNA levels (qRT-PCR) in human adipocyte cultures treated for seven days; assay type: cell-based; conditions: 50 nM myricetin alone, 7 days
[5] = mice; cited from earlier work
rat islets = rat islets incubated in high glucose; cited from earlier work
[6] = oral administration, high fat diet; cited from earlier work
[7] = Estimated human Cmax of myricetin by conversion from rats; conditions: for Cmax: human, oral

SMILES: O=c1c(O)c(-c2cc(O)c(O)c(O)c2)oc2cc(O)cc(O)c12 [myricetin]
- UCP1 and GLUT4 mRNA, flavonol combined with naringenin (human adipocytes [1]; 2.5 μM flavonol + 8 μM naringenin extract, 7 days, vs naringenin alone (FIG. 1)): synergistically increased expression of UCP1 and GLUT4
- most active myricetin concentration with naringenin extract and β-carotene (human adipocytes [1]; 25, 50 and 100 nM tested with NRBC): 50 nM
- myricetin concentration with most potent upregulation of gene expression (human adipocytes [1]; added to 8 μM naringenin, 0.1 μM to 6 μM tested): 0.1 µM
- effects on gene expression of myricetin added to NRBC (human adipocytes [1]): further upregulates gene expression; also recorded: almost doubles; also recorded: approximately doubles
- effects on gene expression of myricetin added to NRBC (human adipocytes [1]; listed as Myricetin): enhances the effects on gene expression
- increase in UCP-1 and GLUT-4 with naringenin (human adipocytes [1]; human fat cells, myricetin with naringenin): many fold greater increase in UCP-1 and GLUT-4
- gene expression, myricetin alone (human adipocytes [1]; low nanomolar concentrations, 7 days): no effect at any concentration
- effects on gene expression combined with naringenin (human adipocytes [1]; myricetin 5 nM + 8 μM naringenin ext): slightly reduced
- effects on gene expression combined with naringenin (human adipocytes [1]; myricetin 50 nM and 25 nM + 8 μM naringenin ext): remained strong
- upregulation of thermogenic gene expression and adiponectin (human adipocytes [1]; myricetin added to naringenin alone or to naringenin and beta carotene): approximately doubles
- Cmax ([2]; first value (50 mg/kg p.o.)): 5 µM
- Cmax ([2]; second value (100 mg/kg p.o.)): 8.7 µM
- Tox, human equivalent [3]: 11 g
- SIRT1 or SIRT3 mRNA levels (human adipocytes [4]): no effect
- Tox [5]: 1000 mg/kg/day
- insulin release (rat islets): stimulated insulin release
- fatty liver disease and circulating triglycerides [6]: improved fatty liver disease and lowered circulating triglycerides
- Human Cmax ([7]; 564 mg dose, conversion from 50 mg/kg in rats): 39.4 µM
- Cmax ([7]; 10 mg): ~0.4 µM
- Cmax ([7]; 564 mg): ~2.5 µM
